Assay results as given in ChEMBL document CHEMBL6121005 (Eur J Med Chem, 2025).
Activity calls are given as the source filed them. The rule behind the calls is not given here.

Columns and labels:
Mus musculus [1] = assay: Antialzheimer activity against scopolamine-induced ICR mouse cognitive deficit model assessed as latency time at 2.5 to 10 mg/kg, po administrated daily and measured on initial day of training by Morris water maze test; format: functional; settings: dose 2.5-10 mg/kg
PC-12 [2] = assay: Neuroprotective activity against H2O2-induced rat PC12 cells assessed as protection against H2O2-induced apoptosis by measuring necrotic cells at 50 uM pretreated for 2 hrs followed by H2O2 addition and measured after 24 hrs by Annexin V-FITC/PI staining based flow cytometry analysis (reference value: 0.99 %); format: functional; settings: time 26 hrs
Mus musculus [3] = assay: Antialzheimer activity against amyloid beta (1 to 42)-induced ICR mouse cognitive deficit model assessed as increase in alternation performance at 5 mg/kg, po administered daily and measured on day 12 by Y-maze test relative to control; format: functional; settings: time 12 day
Mus musculus [4] = assay: Antialzheimer activity in amyloid beta (1 to 42 residues) induced ICR mouse assessed as increase in distance travelled within target quadrant at 5 mg/kg, po administered daily and measured after 15 to 19 days by Morris water maze test; format: functional, organism-based; settings: time 15-19 day
Mus musculus [5] = assay: Antialzheimer activity against amyloid beta (1 to 42)-induced ICR mouse memory impairment model assessed as mean escape latency at 2.5 to 10 mg/kg, po administered daily and measured after 15 to 19 days by Morris water maze test; format: functional, organism-based; settings: dose 2.5-10 mg/kg, time 15-19 day
PC-12 [6] = assay: Neuroprotective activity against H2O2-induced rat PC12 cells assessed as protection against H2O2-induced apoptosis by measuring late apoptotic cells at 50 uM pretreated for 2 hrs followed by H2O2 addition and measured after 24 hrs by Annexin V-FITC/PI staining based flow cytometry analysis (reference value: 7.26 %); format: functional; settings: time 26 hrs
Mus musculus [7] = assay: Antialzheimer activity in amyloid beta (1 to 42 residues) induced ICR mouse assessed as increase in time spent within target quadrant at 5 mg/kg, po administered daily and measured after 15 to 19 days by Morris water maze test; format: functional, organism-based; settings: time 15-19 day
PC-12 [8] = assay: Neuroprotective activity against H2O2-induced rat PC12 cells assessed as protection against H2O2-induced apoptosis by measuring early apoptotic cells at 50 uM pretreated for 2 hrs followed by H2O2 addition and measured after 24 hrs by Annexin V-FITC/PI staining based flow cytometry analysis (reference value: 0.88 %); format: functional; settings: time 26 hrs
Mus musculus [9] = assay: Antialzheimer activity against scopolamine-induced ICR mouse cognitive deficit model assessed as decrease in latency time at 2.5 to 10 mg/kg, po administrated daily and measured on last day of training by Morris water maze test; format: functional, organism-based; settings: dose 2.5-10 mg/kg
Mus musculus [10] = assay: Antialzheimer activity in scopolamine-induced ICR mouse assessed as increase in trajectory within target quadrant at 2.5 to 10 mg/kg, po administered daily and measured after 16 to 20 days by Morris water maze test; format: functional, organism-based; settings: dose 2.5-10 mg/kg, time 16-20 day
[11] = Inhibition of H2O2-induced ROS release in rat PC12 cells assessed as mean fluorescence intensity at 50 uM preincubated for 2 hrs followed by H2O2 addition and measured after 24 hrs by DCFH-DA based flow cytometry analysis (reference value: 23904); format: functional, PC-12; settings: time 26 hrs
PC-12 [12] = assay: Cytoprotective against rat PC12 cells assessed as cell viability at 50 uM preincubated for 24 hrs and measured after 4 hrs by CCK-8 assay; format: functional, cell-based
PC-12 [13] = assay: Neuroprotective activity against H2O2-induced rat PC12 cells assessed as protection against H2O2-induced apoptosis by measuring viable cells at 50 uM pretreated for 2 hrs followed by H2O2 addition and measured after 24 hrs by Annexin V-FITC/PI staining based flow cytometry analysis (reference value: 90.8 %); format: functional; settings: time 26 hrs
Mus musculus [14] = assay: Antialzheimer activity in amyloid beta (1 to 42 residues) induced ICR mouse memory impairment model assessed as increase in trajectory after platform removal at 2.5 to 10 mg/kg, po administered daily and measured after 15 to 19 days by Morris water maze test; format: functional, organism-based; settings: dose 2.5-10 mg/kg, time 15-19 day
Mus musculus [15] = assay: Antialzheimer activity against scopolamine-induced ICR mouse cognitive deficit model assessed as decrease in movement distance at 2.5 to 10 mg/kg, po administrated daily and measured on last day of training by Morris water maze test; format: functional, organism-based; settings: dose 2.5-10 mg/kg
Mus musculus [16] = assay: Antialzheimer activity against amyloid beta (1 to 42)-induced ICR mouse memory impairment model assessed as decrease in movement distance at 2.5 to 10 mg/kg, po administered daily and measured after 15 to 19 days by Morris water maze test; format: functional, organism-based; settings: dose 2.5-10 mg/kg, time 15-19 day
[17] = Acute toxicity in male ICR mouse assessed as microscopic heart damage at 100 to 1000 mg/kg, po administered for 14 days by hematoxylin and eosin staining based assay; format: organism-based; settings: in vivo, 336 h, dose 100-1000 mg/kg, time 14 day
[18] = Acute toxicity in male ICR mouse assessed as microscopic lungs damage at 100 to 1000 mg/kg, po administered for 14 days by hematoxylin and eosin staining based assay; format: organism-based; settings: in vivo, 336 h, dose 100-1000 mg/kg, time 14 day
[19] = Acute toxicity in male ICR mouse assessed as effect on body weight at 100 to 1000 mg/kg, po administered for 14 days; format: organism-based; settings: in vivo, 336 h, dose 100-1000 mg/kg, time 14 day
Mus musculus [20] = assay: Antialzheimer activity against amyloid beta (1 to 42)-induced ICR mouse cognitive deficit model assessed as increase in alternation performance at 10 mg/kg, po administered daily and measured on day 12 by Y-maze test relative to control; format: functional; settings: time 12 day
[21] = Acute toxicity in male ICR mouse assessed as microscopic brain damage at 100 to 1000 mg/kg, po administered for 14 days by hematoxylin and eosin staining based assay; format: organism-based; settings: in vivo, 336 h, dose 100-1000 mg/kg, time 14 day
[22] = Cytotoxicity against rat PC12 cells assessed as cell viability at 50 uM preincubated for 24 hrs and measured after 4 hrs by CCK-8 assay; format: toxicity, cell-based, PC-12; settings: time 28 hrs, read-out: Activity
Mus musculus [23] = assay: Antialzheimer activity in scopolamine- induced ICR mouse assessed as increase in time spent within target quadrant at 2.5 to 10 mg/kg, po administered daily and measured after 16 to 20 days by Morris water maze test; format: functional, organism-based; settings: dose 2.5-10 mg/kg, time 16-20 day
[24] = Acute toxicity in male ICR mouse assessed as microscopic kidneys damage at 100 to 1000 mg/kg, po administered for 14 days by hematoxylin and eosin staining based assay; format: organism-based; settings: in vivo, 336 h, dose 100-1000 mg/kg, time 14 day
Mus musculus [25] = assay: Antialzheimer activity in scopolamine-induced temporary memory and cognitive impairment ICR mouse model assessed as increase in step-through latency time at 2.5 to 10 mg/kg, po administered daily and measured on day 13 and 14 by step-through passive avoidance test; format: functional, organism-based; settings: dose 2.5-10 mg/kg, time 13-14 day
Mus musculus [26] = assay: Antialzheimer activity in scopolamine-induced temporary memory and cognitive impairment ICR mouse model assessed as alternation performance at 2.5 to 5 mg/kg, po administered daily and measured on day 15 by Y-maze test; format: functional, organism-based; settings: dose 2.5-5 mg/kg, time 15.0 day
PC-12 [27] = assay: Antioxidant activity against H2O2-induced toxicity in rat PC12 cells at 12.5 uM preincubated for 2 hrs and measured after 24 hrs by CCK-8 assay; format: functional, cell-based; settings: time 26.0 hrs
Mus musculus [28] = assay: Antialzheimer activity against amyloid beta (1 to 42)-induced ICR mouse cognitive deficit model assessed as increase in alternation performance at 2.5 mg/kg, po administered daily and measured on day 12 by Y-maze test relative to control; format: functional; settings: time 12 day
Mus musculus [29] = assay: Antialzheimer activity in amyloid beta (1 to 42 residues) induced ICR mouse assessed as increase in distance travelled within target quadrant at 2.5 to 5 mg/kg, po administered daily and measured after 15 to 19 days by Morris water maze test; format: functional, organism-based; settings: dose 2.5-5 mg/kg, time 15-19 day
[30] = Acute toxicity in male ICR mouse assessed as mortality at 100 to 1000 mg/kg, po administered as single dose for 14 days; format: organism-based; settings: in vivo, 336 h, dose 100-1000 mg/kg, time 14 day
Mus musculus [31] = assay: Antialzheimer activity against amyloid beta (1 to 42)-induced ICR mouse cognitive deficit model assessed as increase in step-through latency time at 5 to 10 mg/kg, po administered daily and measured on day 13 and 14 by step-through passive avoidance test; format: functional, organism-based; settings: dose 5-10 mg/kg, time 13-14 day
Cholinesterase [32] = target: T1, Cholinesterase (Homo sapiens, UniProt P06276); assay: Inhibition of human serum BuChE using butyrylthiocholine iodide as substrate at 10 uM incubated for 10 mins followed by substrate addition by DTNB reagent based Ellman's method relative to control
T1 sequence (P06276 whole entry): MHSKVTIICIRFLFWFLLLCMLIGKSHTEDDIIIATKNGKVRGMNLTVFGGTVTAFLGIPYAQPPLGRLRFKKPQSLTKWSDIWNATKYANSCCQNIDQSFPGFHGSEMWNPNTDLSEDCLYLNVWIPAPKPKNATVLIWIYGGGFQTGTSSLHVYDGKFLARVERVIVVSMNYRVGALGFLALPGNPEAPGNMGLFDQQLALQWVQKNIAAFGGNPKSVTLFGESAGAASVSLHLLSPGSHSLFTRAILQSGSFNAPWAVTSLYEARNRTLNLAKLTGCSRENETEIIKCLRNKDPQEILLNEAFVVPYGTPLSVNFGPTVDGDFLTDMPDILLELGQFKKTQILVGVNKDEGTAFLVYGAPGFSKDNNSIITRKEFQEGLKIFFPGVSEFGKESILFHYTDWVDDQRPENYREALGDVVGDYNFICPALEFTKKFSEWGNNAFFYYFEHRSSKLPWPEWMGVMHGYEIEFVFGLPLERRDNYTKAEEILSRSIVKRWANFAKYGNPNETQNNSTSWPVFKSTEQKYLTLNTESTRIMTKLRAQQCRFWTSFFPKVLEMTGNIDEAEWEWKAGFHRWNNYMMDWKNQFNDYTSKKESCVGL

[33] = Acute toxicity in male ICR mouse assessed as microscopic liver damage at 100 to 1000 mg/kg, po administered for 14 days by hematoxylin and eosin staining based assay; format: organism-based; settings: in vivo, 336 h, dose 100-1000 mg/kg, time 14 day
Cholinesterase [34] = target: T1, Cholinesterase; assay: Inhibition of human serum BuChE using butyrylthiocholine iodide as substrate incubated for 10 mins followed by substrate addition by DTNB reagent based Ellman's method
Mus musculus [35] = assay: Antialzheimer activity in scopolamine-induced temporary memory and cognitive impairment ICR mouse model assessed as alternation performance at 10 mg/kg, po administered daily and measured on day 15 by Y-maze test; format: functional, organism-based; settings: time 15.0 day
[36] = Acute toxicity in male ICR mouse assessed as microscopic spleen damage at 100 to 1000 mg/kg, po administered for 14 days by hematoxylin and eosin staining based assay; format: organism-based; settings: in vivo, 336 h, dose 100-1000 mg/kg, time 14 day
Acetylcholinesterase = Acetylcholinesterase (Homo sapiens, UniProt P22303); assay: Inhibition of human erythrocytes AChE measured after 10 mins by Ellman's method
Chain of Acetylcholinesterase (P22303 whole entry): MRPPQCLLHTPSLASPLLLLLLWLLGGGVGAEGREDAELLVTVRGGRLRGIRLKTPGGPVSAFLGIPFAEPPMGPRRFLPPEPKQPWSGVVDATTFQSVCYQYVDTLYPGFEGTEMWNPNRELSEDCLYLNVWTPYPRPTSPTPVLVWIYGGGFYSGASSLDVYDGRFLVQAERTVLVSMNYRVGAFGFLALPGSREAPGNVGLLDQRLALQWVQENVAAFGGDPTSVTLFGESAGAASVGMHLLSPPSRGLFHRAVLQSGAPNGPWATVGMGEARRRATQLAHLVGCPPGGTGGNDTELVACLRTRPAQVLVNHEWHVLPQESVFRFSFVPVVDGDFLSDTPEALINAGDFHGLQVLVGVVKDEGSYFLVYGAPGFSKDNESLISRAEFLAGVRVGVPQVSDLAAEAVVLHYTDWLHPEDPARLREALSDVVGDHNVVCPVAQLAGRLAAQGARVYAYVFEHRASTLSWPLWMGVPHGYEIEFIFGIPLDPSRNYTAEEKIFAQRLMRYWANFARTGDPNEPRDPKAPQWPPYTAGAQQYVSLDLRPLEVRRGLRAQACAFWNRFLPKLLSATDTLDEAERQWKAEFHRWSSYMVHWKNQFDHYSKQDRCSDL

Mus musculus [37] = assay: Antialzheimer activity in scopolamine- induced ICR mouse assessed as increase in distance travelled within target quadrant at 2.5 to 10 mg/kg, po administered daily and measured after 16 to 20 days by Morris water maze test; format: functional, organism-based; settings: dose 2.5-10 mg/kg, time 16-20 day
Mus musculus [38] = assay: Antialzheimer activity in amyloid beta (1 to 42 residues) induced ICR mouse assessed as increase in time spent within target quadrant at 2.5 to 5 mg/kg, po administered daily and measured after 15 to 19 days by Morris water maze test; format: functional, organism-based; settings: dose 2.5-5 mg/kg, time 15-19 day

SMILES: COc1ccc2c3c1O[C@H]1C[C@@H](O)C=C[C@@]31CCN(C)C2 [GALANTAMINE]
- Time (Mus musculus [1]): 60 s
- Activity (PC-12 [2]): 1.89%
- Activity (Mus musculus [3]): 72.92%
- Activity (Mus musculus [4]): Active
- Activity (Mus musculus [5]): Active
- Activity (PC-12 [6]): 17.3%
- Activity (Mus musculus [7]): Active
- Activity (PC-12 [8]): 11.5%
- Activity (Mus musculus [9]): Active
- Activity (Mus musculus [10]): Active
- Flu intensity [11]: 89205
- Activity (PC-12 [12]): Active
- Activity (PC-12 [13]): 70.8%
- Activity (Mus musculus [14]): Active
- Activity (Mus musculus [15]): Active
- Activity (Mus musculus [16]): Active

SMILES: COc1ccc2c3c1O[C@H]1C[C@@H](OCc4ccc(Cc5ccccc5F)cn4)C=C[C@@]31CCN(C)C2
- Activity [17]: Non-toxic
- Time (Mus musculus [1]): 60 s
- Activity (PC-12 [2]): 1.21%
- Activity [18]: Non-toxic
- Activity [19]: Non-toxic
- Activity (Mus musculus [3]): 73.56%
- Activity (Mus musculus [20]): 76.91%
- Activity [21]: Non-toxic
- viability at 4 h, 50 µM [22]: > 90%
- Activity (Mus musculus [23]): Dose-dependent-effect
- Activity [24]: Non-toxic
- Activity (Mus musculus [5]): Active
- Activity (Mus musculus [25]): Dose-dependent-effect
- Activity (PC-12 [6]): 7.35%
- Activity (Mus musculus [26]): Active
- Activity (PC-12 [27]): Dose-dependent-effect
- Activity (Mus musculus [28]): 72.91%
- Activity (PC-12 [8]): 5.42%
- Activity (Mus musculus [29]): Active
- Activity [30]: Non-toxic
- Activity (Mus musculus [31]): Active
- Activity (Mus musculus [9]): Active
- Activity (Mus musculus [10]): Active
- inhibition (Cholinesterase [32]): 96.5%
- Activity [33]: Non-toxic
- Flu intensity [11]: 41314
- Activity (PC-12 [12]): Active
- IC50 (Cholinesterase [34]): 358 nM
- Activity (Mus musculus [35]): inactive
- Activity (PC-12 [13]): 86%
- Activity [36]: Non-toxic
- IC50 (Acetylcholinesterase): 514 nM
- Activity (Mus musculus [14]): Active
- Activity (Mus musculus [37]): Dose-dependent-effect
- Activity (Mus musculus [15]): Active
- Activity (Mus musculus [16]): Active
- Activity (Mus musculus [38]): Active
